From US8084621B2, “3-Pyrrolo[b]cyclohexylene-2-dihydroindolinone derivatives and uses thereof” (Jiangsu Simcere Pharmaceutical R&D Co. Ltd., priority 2006, dated 2011)

Experiments:
Assay type in all cases: cell-based
[1] = test system: Human Ovarian Cancer Cell Line (SK-OV-3); assay: Tumor cell proliferation assay (MTT), SK-OV-3; conditions: for inhibition at 10 µM: concentration of 10^−5 mol/L, preliminary screening, 72 hours, read-out: Inhibition rate % SK-OV-3; for IC50: secondary screening, 48 hours
Text: (§1) The assay used generally is the blue tetrazolium bromide (MTT) method. […] The amount of formazan can be detected by the microplate reader through the absorption value at 570 nm. The amount of formazan product generated is proportional to the number of living cells in the sample, so the OD value may reflect the number of living cells and the ability of a test drug to inhibit or kill cells. The MTT assay may be used in determining the ability of different compounds of the present invention to inhibit one or more cancer cells proliferation. Similar assays can be designed along the same lines for any cancer cell using techniques well known in the art.
(§2) The assay used generally is the blue tetrazolium bromide (MTT) method. […] Intracellular purple formazan salt crystals can be solved in DMSO and the absorption value at 570 nm is detected by the microplate reader, then the number of living cells can be detected indirectly. So MTT assay may be used to determine the ability of a compound of the present invention to inhibit cell proliferation. Similar assays can be designed along the same lines for any cancer cell using techniques well known in the art.
2.2.13 Human Ovarian Cancer Cell Line (SK-OV-3).
(§3) The cells of 2.2.11, 2.2.12, 2.2.13 were cultured in MC COYS 5-A medium containing 12% fetal bovine serum in the condition of 37° C., 5% CO2.
(§4) 2.3.1 Cell seeding: Trypsinize the cell by 0.05% trypsin-EDTA and add RPMI 1640 medium (DMEM or 5A) containing 12% calf serum. Count the number, then dilute to 1.67×10^4/ml. Add 180 ul/well to the 96 well plate (3000 cells/well).
(§5) 2.3.2 Culture: cells are incubated for 24 hours at 37° C. under 5% CO2.
(§6) 2.3.3 Preliminary screening: The compounds are firstly diluted to 0.1 mol/L with DMSO, and then diluted to three concentrations of 10^−5 mol/L, 10^−6 mol/L and 10^−7 mol/L. Add 20 ul test compounds to the 96 well plate and incubate for 72 hours. Each group has three parallel wells and all experiments repeat three times. Each inhibition ratio is calculated, then an average value of three times is taken as the measured value. 2.3.4 Staining 2.3.4.1 Attached cell: add 20 ul/well MTT to the 96-well plates; incubate for 4 hours in the incubator. Pour out the culture medium in the well and add 100 ul/well DMSO. Shake the plate for 5 min. 2.3.4.2 Suspension cell: add 20 ul/well MTT to the 96-well plates; incubate for 4 hours in the incubator. Add 50 ul/well 20% SDS and incubate for overnight in the incubator. 2.3.5 Reading the plates: read the absorbance A570-A630 with the Infinite M200 microtiter plate reader. Calculate the inhibition ratio of the test compounds. 2.3.6 Secondary screening: the compounds whose inhibition ratio is greater than 50% at the concentrations of 10^−5 mol/L in the preliminary screening will be picked out for Secondary screening. Dilute these compounds to ten concentrations: 10^−5 mol/L, 0.5×10^−5 mol/L, 10^−6 mol/L, 0.8×10^−6 mol/L, 0.6×10^−6 mol/L, 0.4×10^−6 mol/L, 0.2×10^−6 mol/L, 10^−7 mol/L, 0.8×10^−7 mol/L and 0.4×10^−7 mol/L. Add 20 ul test compound solution to the 96 well plate and incubate for 48 hours. Each group has three parallel wells and all experiments repeat for three times. Read the plates and calculate the inhibition ratio according to the preliminary screening method. 2.3.7 Calculate the Inhibition Ratio of Cell Proliferation and the IC50
(§7) According to the inhibition ratio of cell proliferation at the different concentrations of the compound, inhibition ratio of 50% of the test compound is calculated through the logarithm of the concentration of the compound with the Logit [I] linear regression, and an average value of three times is taken as the measured value of a sample.

[2] = test system: Human Gastric Cancer Cell Line (BGC); assay: Tumor cell proliferation assay (MTT), BGC; conditions: for inhibition at 10 µM: concentration of 10^−5 mol/L, preliminary screening, 72 hours, read-out: Inhibition rate % BGC; for IC50: secondary screening, 48 hours
Text: as §1, §2
2.2.1 Human Gastric Cancer Cell Line (BGC)
(§8) The cells of the 2.2.1, 2.2.2, 2.2.3, 2.2.4, 2.2.5 cultured with RPMI 1640 containing 12% calf serum in the condition of 37° C., 5% CO2.
as §4, §5, §6, §7

[3] = test system: Human Pancreatic Carcinoma Cells (PANC-1); assay: Tumor cell proliferation assay (MTT), PANC-1; conditions: for inhibition at 10 µM: concentration of 10^−5 mol/L, preliminary screening, 72 hours, read-out: Inhibition rate % PANC-1; for IC50: secondary screening, 48 hours
Text: as §1, §2
2.2.4 Human Pancreatic Carcinoma Cells (PANC-1)
as §8, §4, §5, §6, §7

[4] = test system: Human Colon Cancer Cell Line (HT-29); assay: Tumor cell proliferation assay (MTT), HT29; conditions: for inhibition at 10 µM: concentration of 10^−5 mol/L, preliminary screening, 72 hours, read-out: Inhibition rate % HT29; for IC50: secondary screening, 48 hours
Text: as §1, §2
2.2.11 Human Colon Cancer Cell Line (HT-29);
as §3, §4, §5
as §6, with “2.3.6 Secondary screening: the compounds whose inhibition ratio is greater than 50% at the concentrations of 10^−5 mol/L in the preliminary screening will be picked out for Secondary screening.” left out
as §7

[5] = test system: Human Pancreatic Carcinoma Cell Line (BXPC-3); assay: Tumor cell proliferation assay (MTT), BXPC-3; conditions: for inhibition at 10 µM: concentration of 10^−5 mol/L, preliminary screening, 72 hours, read-out: Inhibition rate % BXPC-3; for IC50: secondary screening, 48 hours
Text: as §1, §2
2.2.6 Human Pancreatic Carcinoma Cell Line (BXPC-3);
(§9) The cells of 2.2.6, 2.2.7 cultured in RPMI 1640 medium containing 12% fetal bovine serum in the condition of 37° C., 5% CO2.
as §4, §5
as §6, with “2.3.6 Secondary screening: the compounds whose inhibition ratio is greater than 50% at the concentrations of 10^−5 mol/L in the preliminary screening will be picked out for Secondary screening.” left out
as §7

[6] = test system: Human Small Cell Lung Cancer Cell Line (NCI-H446); assay: Tumor cell proliferation assay (MTT), NCI-H446; conditions: for inhibition at 10 µM: concentration of 10^−5 mol/L, preliminary screening, 72 hours, read-out: Inhibition rate % NCI-H446; for IC50: secondary screening, 48 hours
Text: as §1, §2
2.2.5 Human Small Cell Lung Cancer Cell Line (NCI-H446)
as §8, §4, §5, §6, §7

[7] = test system: Human Non-Small Cell Lung Cancer Cell Line (A549); assay: Tumor cell proliferation assay (MTT), A549; conditions: for inhibition at 10 µM: concentration of 10^−5 mol/L, preliminary screening, 72 hours, read-out: Inhibition rate % A549; for IC50: secondary screening, 48 hours
Text: as §1, §2
2.2.2 Human Non-Small Cell Lung Cancer Cell Line (A549)
as §8, §4, §5, §6, §7

[8] = test system: Human Bladder Cancer Cell Line (T24); assay: Tumor cell proliferation assay (MTT), T24; conditions: concentration of 10^−5 mol/L, preliminary screening, 72 hours, read-out: Inhibition rate % T24
Text: as §1, §2
2.2.7 Human Bladder Cancer Cell Line (T24);
as §9, §4, §5, §6, §7

[9] = test system: Human Hepatocellular Carcinoma Cell Line (HEPG2); assay: Tumor cell proliferation assay (MTT), HEPG2; conditions: concentration of 10^−5 mol/L, preliminary screening, 72 hours, read-out: Inhibition rate % HEPG2
Text: as §1, §2
2.2.8 Human Hepatocellular Carcinoma Cell Line (HEPG2);
The cells of 2.2.8, 2.2.9 cultured in DMEM/High glucose medium containing 12% calf serum in the condition of 37° C., 5% CO2.
as §4, §5, §6, §7

Structure (SMILES) | IC50 [2] [µM] | IC50 [4] [µM] | IC50 [5] [µM] | IC50 [6] [µM] | IC50 [1] [µM] | IC50 [7] [µM] | IC50 [3] [µM] | inhibition at 10 µM [1] [%] | inhibition at 10 µM [2] [%] | inhibition at 10 µM [3] [%] | inhibition at 10 µM [4] [%] | inhibition at 10 µM [5] [%] | inhibition at 10 µM [6] [%] | inhibition at 10 µM [7] [%] | inhibition at 10 µM [8] [%] | inhibition at 10 µM [9] [%]
Cc1ccc2c(c1)/C(=C1\CCCc3c1[nH]c(C)c3C(=O)NCC(O)CN(C)C1CCCCC1)C(=O)N2 (stereo not shown) [I-79, N-[3-(cyclohexyl(methyl)amino)-2-hydroxypropyl]-2-methyl-7-[1,2-dihydro-5-methyl-2-oxo-3H-indol-(Z)-3-ylidene]-4,5,6,7-tetrahydro-1H-indole-3-carboxamide] | 2.28 | 2.32 | 0.84 | 3.26 | 1.51 | 2.84 | 3.99 | 96 | 81 | 96.8 | 98.2 | 99 |  | 63.3 |  | 
Cc1[nH]c2c(c1C(=O)N(C)C)CCC/C2=C1/C(=O)Nc2ccccc21 [I-15, N,N,2-trimethyl-7-[1,2-dihydro-2-oxo-3H-indol-(Z)-3-ylidene]-4,5,6,7-tetrahydro-1H-indole-3-carboxamide] |  |  |  |  |  |  |  |  |  |  |  |  |  |  | 74.8 | 61.1
Cc1[nH]c2c(c1C(=O)N1CCOCC1)CCC/C2=C1/C(=O)Nc2ccc(Cl)cc21 [I-11, 2-methyl-3-(morpholine-4-carbonyl)-7-[1,2-dihydro-5-chloro-2-oxo-3H-indol-(Z)-3-ylidene]-4,5,6,7-tetrahydro-1H-indole] |  |  |  |  |  |  |  |  |  |  |  |  |  |  | 0 | 2.92
Cc1[nH]c2c(c1C(=O)NCC(O)CN1CCOCC1)CCC/C2=C1/C(=O)Nc2ccc(Cl)cc21 (stereo not shown) [I-69, N-(2-hydroxy-3-morpholinopropyl)-2-methyl-7-[1,2-dihydro-5-chloro-2-oxo-3H-indol-(Z)-3-ylidene]-4,5,6,7-tetrahydro-1H-indole-3-carboxamide] |  |  |  |  |  |  |  | 2.8 | 30 | 22.4 | 34.9 | 39.9 | 25.3 | 18.9 |  | 

Further lines, with some results ahead:

IC50 [2] [µM] | IC50 [4] [µM] | IC50 [5] [µM] | IC50 [6] [µM] | IC50 [1] [µM] | IC50 [7] [µM] | IC50 [3] [µM] | Structure (SMILES) | inhibition at 10 µM [1] [%] | inhibition at 10 µM [2] [%] | inhibition at 10 µM [3] [%] | inhibition at 10 µM [4] [%] | inhibition at 10 µM [5] [%] | inhibition at 10 µM [6] [%] | inhibition at 10 µM [7] [%] | inhibition at 10 µM [8] [%] | inhibition at 10 µM [9] [%]
4.26 | 6.9 | 7.68 | 9.42 |  |  |  | Cc1[nH]c2c(c1C(=O)NCC(O)CN1CCOCC1)CCC/C2=C1/C(=O)Nc2ccccc21 (stereo not shown) [I-67, N-(2-hydroxy-3-morpholinopropyl)-2-methyl-7-[1,2-dihydro-2-oxo-3H-indol-(Z)-3-ylidene]-4,5,6,7-tetrahydro-1H-indole-3-carboxamide] | 8.34 | 67.6 | 31.5 | 51.9 | 51.7 | 49.3 |  |  | 
3.63 | 1.38 | 2.24 | 7.09 | 3.03 | 1.36 | 3.4 | Cc1[nH]c2c(c1C(=O)NCC(O)CN1CCN(C)CC1)CCC/C2=C1/C(=O)Nc2ccccc21 (stereo not shown) [I-76, N-[2-hydroxy-3-(4-methylpiperazin-1-yl)propyl]-2-methyl-7-[1,2-dihydro-2-oxo-3H-indol-(Z)-3-ylidene]-4,5,6,7-tetrahydro-1H-indole-3-carboxamide] | 90.3 | 74.2 | 80.1 | 92.1 | 97.5 | 64.6 | 64.5 |  | 
2.92 | 4.36 | 1.89 | 2.98 | 2.17 | 3.73 | 1.81 | Cc1[nH]c2c(c1C(=O)NCC(O)CN1CCCC1)CCC/C2=C1/C(=O)Nc2ccc(Cl)cc21 (stereo not shown) [I-72, N-(2-hydroxy-3-(pyrrolidin-1-yl)propyl)-2-methyl-7-[1,2-dihydro-5-chloro-2-oxo-3H-indol-(Z)-3-ylidene]-4,5,6,7-tetrahydro-1H-indole-3-carboxamide] | 95.1 | 85.9 | 98.1 | 97.4 | 99.3 | 97.9 | 81.2 |  | 
12.2 |  |  |  |  |  |  | Cc1[nH]c2c(c1C(=O)NCC(O)CN1CCN(C)CC1)CCC/C2=C1/C(=O)Nc2ccc(Cl)cc21 (stereo not shown) [I-78, N-[2-hydroxy-3-(4-methylpiperazin-1-yl)propyl]-2-methyl-7-[1,2-dihydro-5-chloro-2-oxo-3H-indol-(Z)-3-ylidene]-4,5,6,7-tetrahydro-1H-indole-3-carboxamide] | 20.2 | 48.5 | 21.8 | 24.2 | 31.7 | 8.07 | 29.9 |  | 
